Results reported in patent US20210207101A1, “Hybrid Thymus, Methods of Making, and Methods of Using to Induce Xenograft Tolerance, Restore Immunocompetence and Thymic Function” (THE TRUSTEES OF COLUMBIA UNIVERSITY IN THE CITY OF NEW YORK, priority 2018, published 2021).

Assays:
pig thymocytes = assay: Ex vivo depletion of thymocytes in pig thymic fragments; type: cell-based; conditions: 2DG 100 mM for 12 hours
From the text: There are different strategies to deplete the thymocytes in pig thymic fragments ex vivo, including anti-pig CD3 immunotoxin and complement-mediated toxicity (rabbit serum as source of complements plus anti-pig CD2). However, these two strategies were not effective. […] Results not shown.
[…] The ratio of remaining live double positive CD4 and CD8 cells (DP) or single positive (SP) CD4 (SP-CD4) or SP-CD8 cells on double negative (DN) cells, which contain the stromal cells, was used as the readout.

[1] = tested on: human thymopoiesis in grafted thymi; assay: Human immune cell reconstitution after transplantation of 2DG-treated or untreated pig thymi into humanized NSG mice; type: in vivo, mouse; conditions: 100 mM 2DG for 12 hours before grafting; mice bled every 2-3 weeks
Experimental: Using the 2DG treatment to deplete the pig thymocytes and the Hamilton syringe (Method C described above) for injection of human thymic stromal cells, a hybrid thymus was generated and tested in vivo. Specifically, two vials of fetal pig thymus were thawed. After pipetting up and down to release as many thymocytes as possible, half of the pieces were treated with 100 mM 2DG for 12 hours and the other half remained untreated. On the next day, six vials of human fetal thymus were thawed. After pipetting up and down to release as many thymocytes as possible, liberase was used to digest and release the stromal cells and make a single-cell suspension. After depletion of human CD45+ cells using magnetic-activated cell sorting (MACS), 10 million thymic stromal cells were dissolved in 150 μl of cold Matrigel at a concentration of 66,000 cells per μl. Around 10 μl of the cells (around 660,000 thymic stromal cells) were injected into each fetal pig thymus piece (either 2DG-treated and non-treated). The pieces were kept with fine forceps at room temperature for about 2 minutes until the Matrigel solidified. Then, each piece was transferred to a well of a 96-well plate containing medium with 10% human serum. […] Every 2-3 weeks following transplantation, the mice were bled, and the level of human immune cell reconstitution was evaluated.

O=CC[C@@H](O)[C@H](O)[C@H](O)CO [2DG, 2-deoxyglucose]
ratio of remaining live DP or SP-CD4 or SP-CD8 cells on double negative (DN) cells (pig thymocytes): lowest ratios
effect of treatment of pig thymic fragments on human thymopoiesis in grafted thymi [1]: did not affect human thymopoiesis
